Data from patent publication US10428044B2, “3-amino-1,5,6,7-tetrahydro-4H-indol-4-ones” (Bayer Pharma Aktiengesellschaft, priority 2014, dated 2019).

target: (recombinant) catalytic domain of human Bub1 (amino acids 704-1085) (Homo sapiens (Human), UniProt O43683); test: Bub1 kinase assay (TR-FRET); type: biochemical; conditions: ATP 10 μM final, peptide substrate 1 μM final, 60 min at 22° C., read-out: Biological Assay: Bub1 kinase assay median IC50
Procedure, shortened: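 Compounds were serially diluted 1:3.4 from 2 mM DMSO stocks and incubated with the enzyme reaction for 60 min at 22° C. The reaction was stopped with EDTA, and biotinylated peptide phosphorylation was read by TR-FRET using Eu anti-mouse IgG, anti-phosphoserine antibody and streptavidin-XL665. IC50 was fitted by 4-parameter logistic to inhibition normalized to no-inhibitor and no-enzyme controls.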

Chain of (recombinant) catalytic domain of human Bub1 (amino acids 704-1085) (O43683 704-1085): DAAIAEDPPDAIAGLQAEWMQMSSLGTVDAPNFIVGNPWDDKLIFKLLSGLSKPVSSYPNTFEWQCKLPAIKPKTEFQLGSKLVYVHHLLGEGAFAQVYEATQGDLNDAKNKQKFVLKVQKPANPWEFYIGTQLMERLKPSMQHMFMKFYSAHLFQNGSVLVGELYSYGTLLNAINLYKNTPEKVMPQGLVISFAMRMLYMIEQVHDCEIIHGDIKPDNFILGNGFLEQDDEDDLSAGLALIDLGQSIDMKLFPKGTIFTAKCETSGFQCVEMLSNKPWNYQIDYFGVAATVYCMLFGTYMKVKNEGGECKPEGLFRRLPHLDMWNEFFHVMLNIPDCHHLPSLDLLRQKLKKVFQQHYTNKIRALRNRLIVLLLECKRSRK

Which IC50 does the source give for CC1(C)CC(=O)c2c([nH]c(-c3ccnc(N4CCC4)c3)c2Nc2ccccc2)C1 [Example 360, 2-[2-(azetidin-1-yl)pyridin-4-yl]-6,6-dimethyl-3-(phenylamino)-1,5,6,7-tetrahydro-4H-indol-4-one] here?
Its IC50 is 12700 nM.

Which IC50 does the source give for CC1(C)CC(=O)c2c([nH]c(-c3ccnc(NCC(F)(F)F)c3)c2Nc2ccccc2)C1 [Example 361, 6,6-dimethyl-3-(phenylamino)-2-{2-[(2,2,2-trifluoroethyl)amino]pyridin-4-yl}-1,5,6,7-tetrahydro-4H-indol-4-one] here?
The IC50 was 600 nM.

With CC1(C)CC(=O)c2c([nH]c(-c3ccnc(NCCC(F)(F)F)c3)c2Nc2ccccc2)C1 [Example 362, 6,6-dimethyl-3-(phenylamino)-2-{2-[(3,3,3-trifluoropropyl)amino]pyridin-4-yl}-1,5,6,7-tetrahydro-4H-indol-4-one] as the compound, how does the IC50 read?
The IC50 was 392 nM.

For CC(Nc1cc(-c2[nH]c3c(c2Nc2ccccc2)C(=O)CC(C)(C)C3)ccn1)C(F)F (centres unmarked) [Example 363, 2-(2-{[1,1-difluoropropan-2-yl]amino}pyridin-4-yl)-6,6-dimethyl-3-(phenylamino)-1,5,6,7-tetrahydro-4H-indol-4-one], which IC50 is on record?
Its IC50 is 207 nM.

For CC(C)Nc1cc(-c2[nH]c3c(c2Nc2ccccc2)C(=O)CCC3)ccn1 [Example 364, 3-(phenylamino)-2-[2-(propan-2-ylamino)pyridin-4-yl]-1,5,6,7-tetrahydro-4H-indol-4-one], which IC50 is on record?
The IC50 was 502 nM.

How did the IC50 turn out when O=C1CCCc2[nH]c(-c3ccnc(NCCC(F)(F)F)c3)c(Nc3ccccc3)c21 [Example 365, 3-(phenylamino)-2-{2-[(3,3,3-trifluoropropyl)amino]pyridin-4-yl}-1,5,6,7-tetrahydro-4H-indol-4-one] was run?
The IC50 was 604 nM.

Which IC50 does the source give for O=C1CCCc2[nH]c(-c3ccnc(NCc4ccccc4)c3)c(Nc3ccccc3)c21 [Example 366, 2-[2-(benzylamino)pyridin-4-yl]-3-(phenylamino)-1,5,6,7-tetrahydro-4H-indol-4-one] here?
The IC50 was 1660 nM.

With O=C1CCCc2[nH]c(-c3ccnc(NCc4ccncc4)c3)c(Nc3ccccc3)c21 [Example 367, 3-(phenylamino)-2-{2-[(pyridin-4-ylmethyl)amino]pyridin-4-yl}-1,5,6,7-tetrahydro-4H-indol-4-one] as the compound, how does the IC50 read?
The IC50 was 291 nM.

For O=C1CCCc2[nH]c(-c3ccnc(NCC4CC4)c3)c(Nc3ccccc3)c21 [Example 368, 2-{2-[(cyclopropylmethyl)amino]pyridin-4-yl}-3-(phenylamino)-1,5,6,7-tetrahydro-4H-indol-4-one], which IC50 is on record?
Its IC50 is 622 nM.

How did the IC50 turn out when O=C(O)CNc1cc(-c2[nH]c3c(c2Nc2ccccc2)C(=O)CCC3)ccn1 [Example 369, N-{4-[4-oxo-3-(phenylamino)-4,5,6,7-tetrahydro-1H-indol-2-yl]pyridin-2-yl}glycine] was run?
The IC50 was 362 nM.

With CC1(C)OC[C@H](CNc2cc(-c3[nH]c4c(c3Nc3ccccc3)C(=O)CCC4)ccn2)O1 [Example 370, 2-[2-({[(4S)-2,2-dimethyl-1,3-dioxolan-4-yl]methyl}amino)pyridin-4-yl]-3-(phenylamino)-1,5,6,7-tetrahydro-4H-indol-4-one] as the compound, how does the IC50 read?
The IC50 was 1300 nM.

For O=C1CCCc2[nH]c(-c3ccnc(NC[C@H](O)CO)c3)c(Nc3ccccc3)c21 [Example 371, 2 2-(2-{[(2S)-2,3-dihydroxypropyl]amino}pyridin-4-yl)-3-(phenylamino)-1,5,6,7-tetrahydro-4H-indol-4-one], which IC50 is on record?
The IC50 was 1010 nM.

For O=C1CCCc2[nH]c(-c3ccnc(NCc4cccnc4)c3)c(Nc3ccccc3)c21 [Example 372, 3-(phenylamino)-2-{2-[(pyridin-3-ylmethyl)amino]pyridin-4-yl}-1,5,6,7-tetrahydro-4H-indol-4-one], which IC50 is on record?
Its IC50 is 9530 nM.

With CC(C)(C)OC(=O)N1CC(CNc2cc(-c3[nH]c4c(c3Nc3ccccc3)C(=O)CCC4)ccn2)C1 [Example 373, tert-butyl 3-[({4-[4-oxo-3-(phenylamino)-4,5,6,7-tetrahydro-1H-indol-2-yl]pyridin-2-yl}amino)methyl]azetidine-1-carboxylate] as the compound, how does the IC50 read?
The IC50 was 694 nM.

Cn1nnnc1Nc1cc(-c2[nH]c3c(c2Nc2ccccc2)C(=O)CCC3)ccn1 [Example 374, 2-{2-[(1-methyl-1H-tetrazol-5-yl)amino]pyridin-4-yl}-3-(phenylamino)-1,5,6,7-tetrahydro-4H-indol-4-one] was tested. Which IC50 did it give?
The IC50 was 18.8 nM.

For O=C1CCCc2[nH]c(-c3ccnc(Nc4cccc(F)c4)c3)c(Nc3ccccc3)c21 [Example 375, 2-{2-[(3-fluorophenyl)amino]pyridin-4-yl}-3-(phenylamino)-1,5,6,7-tetrahydro-4H-indol-4-one], which IC50 is on record?
Its IC50 is 330 nM.

CC(C)Nc1cnccc1-c1[nH]c2c(c1Nc1ccccc1)C(=O)CCC2 [Example 376, 3-(phenylamino)-2-[3-(propan-2-ylamino)pyridin-4-yl]-1,5,6,7-tetrahydro-4H-indol-4-one] was tested. Which IC50 did it give?
Its IC50 is 2510 nM.

CCNC(=O)Nc1cc(-c2[nH]c3c(c2Nc2ccccc2)C(=O)CCC3)ccn1 [Example 377, 1-ethyl-3-{4-[4-oxo-3-(phenylamino)-4,5,6,7-tetrahydro-1H-indol-2-yl]pyridin-2-yl}urea] was tested. Which IC50 did it give?
Its IC50 is 30.1 nM.

With CC(C)NC(=O)Nc1cc(-c2[nH]c3c(c2Nc2ccccc2)C(=O)CCC3)ccn1 [Example 378, 1-{4-[4-oxo-3-(phenylamino)-4,5,6,7-tetrahydro-1H-indol-2-yl]pyridin-2-yl}-3-propan-2-ylurea] as the compound, how does the IC50 read?
The IC50 was 64.5 nM.

With O=C(Nc1cc(-c2[nH]c3c(c2Nc2ccccc2)C(=O)CCC3)ccn1)NC1CC1 [Example 379, 1-cyclopropyl-3-{4-[4-oxo-3-(phenylamino)-4,5,6,7-tetrahydro-1H-indol-2-yl]pyridin-2-yl}urea] as the compound, how does the IC50 read?
Its IC50 is 36.6 nM.

CC(C)(C)NC(=O)Nc1cc(-c2[nH]c3c(c2Nc2ccccc2)C(=O)CCC3)ccn1 [Example 380, 1-tert-butyl-3-{4-[4-oxo-3-(phenylamino)-4,5,6,7-tetrahydro-1H-indol-2-yl]pyridin-2-yl}urea] was tested. Which IC50 did it give?
The IC50 was 437 nM.

With CC(C)CNC(=O)Nc1cc(-c2[nH]c3c(c2Nc2ccccc2)C(=O)CCC3)ccn1 [Example 381, 1-(2-methylpropyl)-3-{4-[4-oxo-3-(phenylamino)-4,5,6,7-tetrahydro-1H-indol-2-yl]pyridin-2-yl}urea] as the compound, how does the IC50 read?
The IC50 was 94.4 nM.

With O=C(NCC(F)(F)F)Nc1cc(-c2[nH]c3c(c2Nc2ccccc2)C(=O)CCC3)ccn1 [Example 382, 1-{4-[4-oxo-3-(phenylamino)-4,5,6,7-tetrahydro-1H-indol-2-yl]pyridin-2-yl}-3-(2,2,2-trifluoroethyl)urea] as the compound, how does the IC50 read?
The IC50 was 84 nM.

With COCCNC(=O)Nc1cc(-c2[nH]c3c(c2Nc2ccccc2)C(=O)CCC3)ccn1 [Example 383, 1-(2-methoxyethyl)-3-{4-[4-oxo-3-(phenylamino)-4,5,6,7-tetrahydro-1H-indol-2-yl]pyridin-2-yl}urea] as the compound, how does the IC50 read?
The IC50 was 69.1 nM.

O=C(NCc1ccco1)Nc1cc(-c2[nH]c3c(c2Nc2ccccc2)C(=O)CCC3)ccn1 [Example 384, 1-(furan-2-ylmethyl)-3-{4-[4-oxo-3-(phenylamino)-4,5,6,7-tetrahydro-1H-indol-2-yl]pyridin-2-yl}urea] was tested. Which IC50 did it give?
The IC50 was 113 nM.

How did the IC50 turn out when O=C(Nc1ccncc1)Nc1cc(-c2[nH]c3c(c2Nc2ccccc2)C(=O)CCC3)ccn1 [Example 385, 1-{4-[4-oxo-3-(phenylamino)-4,5,6,7-tetrahydro-1H-indol-2-yl]pyridin-2-yl}-3-pyridin-4-ylurea] was run?
The IC50 was 10.1 nM.

With O=C(Nc1ccccn1)Nc1cc(-c2[nH]c3c(c2Nc2ccccc2)C(=O)CCC3)ccn1 [Example 386, 1-{4-[4-oxo-3-(phenylamino)-4,5,6,7-tetrahydro-1H-indol-2-yl]pyridin-2-yl}-3-pyridin-2-ylurea] as the compound, how does the IC50 read?
The IC50 was 20.3 nM.

For O=C(NCC(F)F)Nc1cc(-c2[nH]c3c(c2Nc2ccccc2)C(=O)CCC3)ccn1 [Example 387, 1-(2,2-difluoroethyl)-3-{4-[4-oxo-3-(phenylamino)-4,5,6,7-tetrahydro-1H-indol-2-yl]pyridin-2-yl}urea], which IC50 is on record?
Its IC50 is 63.5 nM.

With O=C(NCCCl)Nc1cc(-c2[nH]c3c(c2Nc2ccccc2)C(=O)CCC3)ccn1 [Example 388, 1-(2-chloroethyl)-3-{4-[4-oxo-3-(phenylamino)-4,5,6,7-tetrahydro-1H-indol-2-yl]pyridin-2-yl}urea] as the compound, how does the IC50 read?
The IC50 was 43.4 nM.

How did the IC50 turn out when CSCCNC(=O)Nc1cc(-c2[nH]c3c(c2Nc2ccccc2)C(=O)CCC3)ccn1 [Example 389, 1-[2-(methylsulfanyl)ethyl]-3-{4-[4-oxo-3-(phenylamino)-4,5,6,7-tetrahydro-1H-indol-2-yl]pyridin-2-yl}urea] was run?
The IC50 was 38.9 nM.

Cn1cc(NC(=O)Nc2cc(-c3[nH]c4c(c3Nc3ccccc3)C(=O)CCC4)ccn2)cn1 [Example 390, 1-(1-methyl-1H-pyrazol-4-yl)-3-{4-[4-oxo-3-(phenylamino)-4,5,6,7-tetrahydro-1H-indol-2-yl]pyridin-2-yl}urea] was tested. Which IC50 did it give?
The IC50 was 3.96 nM.

For Cn1cc(NC(=O)Nc2cc(-c3[nH]c4c(c3Nc3ccccc3)C(=O)CC(C)(C)C4)ccn2)cn1 [Example 391, 1-{4-[6,6-dimethyl-4-oxo-3-(phenylamino)-4,5,6,7-tetrahydro-1H-indol-2-yl]pyridin-2-yl}-3-(1-methyl-1H-pyrazol-4-yl)urea], which IC50 is on record?
The IC50 was 4.52 nM.

CNC(=S)Nc1cc(-c2[nH]c3c(c2Nc2ccccc2)C(=O)CCC3)ccn1 [Example 392, 1-methyl-3-{4-[4-oxo-3-(phenylamino)-4,5,6,7-tetrahydro-1H-indol-2-yl]pyridin-2-yl}thiourea] was tested. Which IC50 did it give?
The IC50 was 87.5 nM.

Which IC50 does the source give for CCNC(=S)Nc1cc(-c2[nH]c3c(c2Nc2ccccc2)C(=O)CCC3)ccn1 [Example 393, 1-ethyl-3-{4-[4-oxo-3-(phenylamino)-4,5,6,7-tetrahydro-1H-indol-2-yl]pyridin-2-yl}thiourea] here?
The IC50 was 233 nM.

How did the IC50 turn out when O=C1CCCc2[nH]c(-c3ccnc(NC(=S)NCC(F)(F)F)c3)c(Nc3ccccc3)c21 [Example 394, 1-{4-[4-oxo-3-(phenylamino)-4,5,6,7-tetrahydro-1H-indol-2-yl]pyridin-2-yl}-3-(2,2,2-trifluoroethyl)thiourea] was run?
The IC50 was 1150 nM.
